Reference: US4401660A, “Ester derivatives of 5-O-mycaminosyl tylonolide and method of using same” (Eli Lilly and Company, priority 1981, dated 1983)
Read-outs that look alike come from different tables or passages of the source.

Tests used:
[1] = test system: Staphylococcus aureus X1.1; assay: MIC, standard agar-dilution assay (Table II); type: cell-based; design: unit not given here
Experimental: (§1) The MIC's in Table II were determined by standard agar-dilution assays. The MIC's in Table III were obtained using a conventional broth-dilution microtiter test.

[2] = test system: Streptococcus Group D 9960; assay: MIC, standard agar-dilution assay (Table II); type: cell-based; design: unit not given here
Experimental: as §1

[3] = test system: Staphylococcus aureus V41; assay: MIC, standard agar-dilution assay (Table II); type: cell-based; design: unit not given here; conditions: Staphylococcus aureus V41, penicillin-resistant strain
Experimental: as §1

[4] = test system: Staphylococcus aureus S13E; assay: MIC, standard agar-dilution assay (Table II); type: cell-based; design: unit not given here
Experimental: as §1

[5] = test system: Staphylococcus epidermidis EPI1; assay: MIC, standard agar-dilution assay (Table II); type: cell-based; design: unit not given here
Experimental: as §1

[6] = test system: Staphylococcus epidermidis EPI2; assay: MIC, standard agar-dilution assay (Table II); type: cell-based; design: unit not given here
Experimental: as §1

[7] = test system: Streptococcus pneumoniae Park I; assay: MIC, standard agar-dilution assay (Table II); type: cell-based; design: unit not given here
Experimental: as §1

[8] = test system: Streptococcus Group D X66; assay: MIC, standard agar-dilution assay (Table II); type: cell-based; design: unit not given here
Experimental: as §1

[9] = test system: Haemophilus influenzae Holt; assay: MIC, standard agar-dilution assay (Table II); type: cell-based; design: unit not given here; conditions: ampicillin-sensitive strain
Experimental: as §1

[10] = test system: Staphylococcus aureus X400; assay: MIC, standard agar-dilution assay (Table II); type: cell-based; design: unit not given here; conditions: Staphylococcus aureus X400, methicillin-resistant strain
Experimental: as §1

[11] = test system: Haemophilus influenzae R252; assay: MIC, standard agar-dilution assay (Table II); type: cell-based; design: unit not given here; conditions: Haemophilus influenzae R252, ampicillin-resistant strain
Experimental: as §1

[12] = test system: Streptococcus pyogenes C203; assay: MIC, standard agar-dilution assay (Table II); type: cell-based; design: unit not given here
Experimental: as §1

[13] = test system: Streptococcus pyogenes C203; assay: ED50 in mice with experimental infections (Table IV); type: in vivo; conditions: Streptococcus pyogenes, doses given 1 and 4 hours postinfection
Experimental: The OMT ester derivatives of this invention have shown in vivo antimicrobial activity against experimental bacterial infections caused by gram-positive bacteria. When two doses of test compound were administered to mice with experimental infections, the activity observed was measured as an ED50 value [effective dose in mg/kg to protect 50% of the test animals: see Warren Wick, et al., J. Bacteriol. 81, 233-235 (1961)].
^a mg/kg × 2; doses given 1 and 4 hours postinfection

Staphylococcus aureus = assay: MIC, broth-dilution microtiter test (Table III); type: cell-based; design: unit not given here
Experimental: as §1

Streptococcus sp. 80 = assay: MIC, broth-dilution microtiter test (Table III); type: cell-based; design: unit not given here
Experimental: as §1

Mycoplasma synoviae = assay: MIC, broth-dilution microtiter test (Table III); type: cell-based; design: unit not given here
Experimental: as §1

Mycoplasma gallisepticum = assay: MIC, broth-dilution microtiter test (Table III); type: cell-based; design: unit not given here
Experimental: as §1

[14] = test system: Pasteurella multocida 60A; assay: MIC, broth-dilution microtiter test (Table III); type: cell-based; design: unit not given here; conditions: avian isolate
Experimental: as §1

Mycoplasma hyorhinis = assay: MIC, broth-dilution microtiter test (Table III); type: cell-based; design: unit not given here
Experimental: as §1

[15] = test system: Pasteurella multocida 17E; assay: MIC, broth-dilution microtiter test (Table III); type: cell-based; design: unit not given here; conditions: bovine isolate
Experimental: as §1

[16] = test system: Pasteurella multocida 22A; assay: MIC, broth-dilution microtiter test (Table III); type: cell-based; design: unit not given here
Experimental: as §1

[17] = test system: Pasteurella haemolytica 41D; assay: MIC, broth-dilution microtiter test (Table III); type: cell-based; design: unit not given here
Experimental: as §1

[18] = test system: Pasteurella haemolytica 23C; assay: MIC, broth-dilution microtiter test (Table III); type: cell-based; design: unit not given here
Experimental: as §1

[19] = test system: Pasteurella multocida 40G; assay: MIC, broth-dilution microtiter test (Table III); type: cell-based; design: unit not given here
Experimental: as §1

[20] = test system: Pasteurella multocida 68C; assay: MIC, broth-dilution microtiter test (Table III); type: cell-based; design: unit not given here
Experimental: as §1

[21] = test system: Pasteurella haemolytica 22C; assay: MIC, broth-dilution microtiter test (Table III); type: cell-based; design: unit not given here
Experimental: as §1

Pasteurella multocida = assay: Treatment of Pasteurella infections in chicks (Table V); type: in vivo, one-day-old chicks; conditions: Pasteurella multocida, sc, 4 h; 30 mg/kg by subcutaneous injection one and four hours post challenge; read-out: Deaths in Treated Chicks/Number Treated (converted)
Experimental: Certain OMT ester derivatives are active in vivo against Pasteurella infections. Table V summarizes the results of tests in which the ester derivatives were administered to one-day-old chicks at a dosage level of 30 mg/kg by subcutaneous injection one and four hours post challenge of the chicks with Pasteurella multocida (0.1 ml of a 10^-3 dilution of a 20-hour tryptose broth culture of avian P. multocida given subcutaneously). All nonmedicated infected chicks (ten in each control group) died within 24 hours of Pasteurella challenge.

[22] = C203, oral, read-out: ED50, Oral
[23] = C203, sc, subcutaneous, read-out: ED50, Subcutaneous

SMILES | minimal inhibitory concentration (MIC) [1] | minimal inhibitory concentration (MIC) [2] | minimal inhibitory concentration (MIC) [3] | minimal inhibitory concentration (MIC) [4] | minimal inhibitory concentration (MIC) [5] | minimal inhibitory concentration (MIC) [6] | minimal inhibitory concentration (MIC) [7] | minimal inhibitory concentration (MIC) [8] | minimal inhibitory concentration (MIC) [9] | minimal inhibitory concentration (MIC) [10] | minimal inhibitory concentration (MIC) [11] | minimal inhibitory concentration (MIC) [12] | minimal inhibitory concentration (MIC) (Staphylococcus aureus) | minimal inhibitory concentration (MIC) (Streptococcus sp. 80) | minimal inhibitory concentration (MIC) (Mycoplasma synoviae) | minimal inhibitory concentration (MIC) (Mycoplasma gallisepticum) | minimal inhibitory concentration (MIC) [14] | minimal inhibitory concentration (MIC) (Mycoplasma hyorhinis) | minimal inhibitory concentration (MIC) [15] | minimal inhibitory concentration (MIC) [16] | further results
CCC(=O)OC1C(OC2C(CC=O)CC(C)C(=O)C=CC(C)=CC(COC(C)=O)C(CC)OC(=O)CC(O)C2C)OC(C)C(O)C1N(C)C (stereo not shown) [Compound 11] | 0.5 | 1 | 1 | 0.5 | 0.5 | 0.5 | 0.25 | 1 | 4 | 1 | 4 | 0.5 | 6.25 | 1.56 | 0.39 | 0.39 | 50 | 12.5 | 25 | – | ED50 [13, 22]: > 150 mg/kg; ED50 [13, 23]: 5.3 mg/kg
CCC1OC(=O)CC(O)C(C)C(OC2OC(C)C(O)C(N(C)C)C2OC(=O)Cc2ccccc2)C(CC=O)CC(C)C(=O)C=CC(C)=CC1CO (stereo not shown) [Compound 52, 2'-O-(Phenylacetyl)-OMT] | 0.5 | 1 | 1 | 1 | 0.5 | 2 | 0.06 | 0.5 | 2 | 2 | 0.5 | 0.25 | 1.56 | 0.78 | 1.56 | 3.12 | 1.56 | 3.12 | 3.12 | 3.12 | ED50 [13, 22]: 92 mg/kg; ED50 [13, 23]: 2.1 mg/kg; minimal inhibitory concentration (MIC) [17]: 6.25; minimal inhibitory concentration (MIC) [18]: 12.5; minimal inhibitory concentration (MIC) [19]: 3.12; minimal inhibitory concentration (MIC) [20]: 6.25; minimal inhibitory concentration (MIC) [21]: 25
CCCCCCCC(=O)OCC1C=C(C)C=CC(=O)C(C)CC(CC=O)C(OC2OC(C)C(O)C(N(C)C)C2OC(C)=O)C(C)C(O)CC(=O)OC1CC (stereo not shown) [Compound 25] | 0.25 | 0.5 | 0.25 | 0.25 | 0.25 | 0.5 | – | 1 | – | 0.5 | – | – | 0.097 | 0.195 | 1.56 | < 0.05 | 6.25 | 0.78 | 6.25 | 25 | mortality at 30 mg/kg (Pasteurella multocida): 100%; minimal inhibitory concentration (MIC) [17]: 12.5; minimal inhibitory concentration (MIC) [18]: 12.5; minimal inhibitory concentration (MIC) [20]: 6.25; minimal inhibitory concentration (MIC) [21]: 12.5
CCC(=O)OC1C(C)OC(OC2C(CC=O)CC(C)C(=O)C=CC(C)=CC(CO)C(CC)OC(=O)CC(O)C2C)C(OC(=O)CC)C1N(C)C (stereo not shown) [Compound 4] | 2 | 2 | 4 | 2 | 1 | 4 | 8 | 1 | 4 | 2 | 4 | 0.5 | 1.56 | < 0.78 | 0.78 | 0.39 | 3.12 | 1.56 | 3.12 | 3.12 | ED50 [13, 22]: 167 mg/kg; ED50 [13, 23]: 5.7 mg/kg; minimal inhibitory concentration (MIC) [17]: 12.5; minimal inhibitory concentration (MIC) [18]: 6.25; minimal inhibitory concentration (MIC) [19]: 6.25; minimal inhibitory concentration (MIC) [20]: 1.56; minimal inhibitory concentration (MIC) [21]: 6.25
CCC1OC(=O)CC(O)C(C)C(OC2OC(C)C(O)C(N(C)C)C2O)C(CC=O)CC(C)C(=O)C=CC(C)=CC1COC(=O)C12CC3CC(CC(C3)C1)C2 (stereo not shown) [Compound 70] | 1 | 2 | 1 | 1 | 1 | 1 | 0.5 | 2 | 8 | 1 | 16 | 1 | 6.25 | 1.56 | 0.39 | 1.56 | 25 | 3.12 | 12.5 | 12.5 | minimal inhibitory concentration (MIC) [17]: 25; minimal inhibitory concentration (MIC) [18]: 25; minimal inhibitory concentration (MIC) [19]: 12.5; minimal inhibitory concentration (MIC) [20]: 12.5; minimal inhibitory concentration (MIC) [21]: 25
